SMILES strings stand for the structures.

Data set [1] relates to MDA231 (human breast carcinoma). As to conditions: MDA231 cell line.
The subject of data set [2] is HT-29 (human colon adenocarcinoma). As to conditions: HT-29 cell line.
The subject of data set [3] is UMUC3 (human bladder carcinoma). To be noted: UMUC3 cell line.
The test system of data set [4] is PACA2 (human pancreatic adenocarcinoma). As to conditions: PACA2 cell line.
For data set [5], the system named is FDIGROV (human ovarian carcinoma). As to conditions: FDIGROV cell line.
In data set [6] the test system is A-549 (human lung carcinoma). To be noted: A-549 cell line.
Data set [7] has as its system A4982LM (human kidney carcinoma). As to conditions: A4982LM cell line.
The test system of data set [8] is PC-3 (human prostate adenocarcinoma). As to conditions: PC-3 cell line.

Take `Cc1c(C)[n+](Cc2ccccc2)cn1Cc1ccccc1.[Cl-]` [Compound 1, 1,3-bis(phenylmethyl)-4,5-dimethyl-1H-imidazlium chloride]: the “Cytotoxic activity ED50, MDA231” value in data set [1] is more than 10 µg/mL. For the same compound, in data set [2], the “Cytotoxic activity ED50, HT-29” value is more than 10 µg/mL and the “Cytotoxic activity in words, HT-29” value was “inactive”. In addition, the “Cytotoxic activity ED50, UMUC3” value in data set [3] is more than 10 µg/mL. Further, the “Cytotoxic activity ED50, PACA2” value in data set [4] was more than 10 µg/mL. In addition, in data set [5], the “Cytotoxic activity ED50, FDIGROV” value amounted to 7.39 µg/mL and the “ED50, FDIGROV” value turned out to be 7390 µg/mL. For the same compound, in data set [6], the “Cytotoxic activity ED50, A-549” value was more than 10 µg/mL and the “Cytotoxic activity in words, A-549” value is “inactive”. In addition, in data set [7], the “Cytotoxic activity ED50, A4982LM” value is more than 10 µg/mL and the “Cytotoxic activity in words, A4982LM” value was “inactive”. In data set [8], the “Cytotoxic activity ED50, PC-3” value is more than 10 µg/mL and the “Cytotoxic activity in words, PC-3” value is “inactive”.
Take `Cc1c(C)[n+](Cc2ccccc2)c(C)n1Cc1ccccc1.[Cl-]` [Compound 2, 1,3-bis(phenylmethyl)-2,4,5-trimethyl-1H-imidazlium chloride]: the “Cytotoxic activity ED50, MDA231” value in data set [1] came out at 1.66 µg/mL. In data set [2], the “Cytotoxic activity ED50, HT-29” value was more than 10 µg/mL and the “Cytotoxic activity in words, HT-29” value is “inactive”. Further, the “Cytotoxic activity ED50, UMUC3” value in data set [3] was found to be 6.47 µg/mL. Further, the “Cytotoxic activity ED50, PACA2” value in data set [4] came to 1.38 µg/mL. Further, in data set [5], the “Cytotoxic activity ED50, FDIGROV” value came to 5.26 µg/mL and the “ED50, FDIGROV” value was determined as 5260 µg/mL. In addition, in data set [6], the “Cytotoxic activity ED50, A-549” value was more than 10 µg/mL and the “Cytotoxic activity in words, A-549” value is “inactive”. In addition, in data set [7], the “Cytotoxic activity ED50, A4982LM” value was more than 10 µg/mL and the “Cytotoxic activity in words, A4982LM” value is “inactive”. In data set [8], the “Cytotoxic activity ED50, PC-3” value was more than 10 µg/mL and the “Cytotoxic activity in words, PC-3” value is “inactive”.
